# Test results from PMC8509676, “Residual Helicity at the Active Site of the Histidine Phosphocarrier, HPr, Modulates Binding Affinity to Its Natural Partners” (International Journal of Molecular Sciences, 2021).
# T1: Regulator of sigma D from Escherichia coli (Rsd^ec) (E. coli, UniProt P0AFX4 1-158)
# T1 construct: Rsd (regulator of sigma D), anti-sigma factor of sigma 70, E. coli; 158-residue-long protein; called 'intact Rsd' in the abstract and 'wild-type Rsd vector' in the methods; Vector was a gift from Ann Hochschild; source: E. coli C41, purified as described [24,50]
# T1 sequence (looked up): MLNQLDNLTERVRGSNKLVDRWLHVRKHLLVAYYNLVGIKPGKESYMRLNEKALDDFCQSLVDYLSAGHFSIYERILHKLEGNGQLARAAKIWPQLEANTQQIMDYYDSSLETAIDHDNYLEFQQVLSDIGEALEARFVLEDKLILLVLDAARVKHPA
# Columns and labels:
# Rsd^ec [1] = molecular target: T2, Rsd^ec (Escherichia coli, UniProt P0AFX4); assay: Isothermal titration calorimetry (ITC), peptide/Rsd^ec binding; settings: for ΔH, Rsd^ec: 50 mM Tris pH 7.0
# T2 construct: His-tag; made in house; host or cells: E. coli C41
# Experimental: The experimental set-up and data processing of ITC experiments has been described previously. Rsd^ec or EIN^sc (at 10–20 µM) were injected into the cell, and the peptides in the syringe (100–200 µM) in 50 mM of Tris buffer, pH 7.0. The temperature for all the experiments was 25 °C. Typically, each calorimetric titration consisted of performing 19 injections with 2 μL volume, with a time spacing of 150 s, while stirring at 750 rpm in an Auto-iTC200 high-sensitivity microcalorimeter (MicroCal, Malvern-Panalytical, Malvern, UK). The results were analysed by applying a model that considered a single binding site (assuming a 1:1 stoichiometry) for the peptide/EIN^sc or peptide/Rsd^ec interaction using a nonlinear least-squares regression analysis in Origin 7.0 (OriginLab, Northampton, MA, USA) with user-defined fitting routines.
# Rsd^ec [2] = molecular target: T2, Rsd^ec; assay: Fluorescence titration, peptide/Rsd^ec binding
# Experimental: (§1) Spectra were collected at 25 °C on a Cary spectrofluorometer (Agilent, Madrid, Spain), with a Peltier temperature controller. The samples were prepared the day before and left overnight at 5 °C. Before measurements, the samples were incubated for 1 h at 25 °C. A quartz cell with a 1 cm path length (Hellma, Kruibeke, Belgium) was used. In all the experiments, the slit widths were equal to 5 nm for both the excitation and emission lights. Protein samples were excited at either 280 or 295 nm. The experiments were performed between 300 and 400 nm. The signal was acquired for 1 s, and the increment of wavelength was set to 1 nm. Appropriate blank corrections were made in all spectra. For the binding experiments, 3 µM of either protein (Rsd^ec or EIN^sc) and 15 µM of the corresponding peptide were mixed. The experiments in aqueous solution were acquired in Tris buffer (50 mM, pH 7.0).
# (§2) For the titration between either of the two proteins (Rsd^ec or EIN^sc) and the corresponding peptide, increasing amounts of the latter, in a concentration range of 0 to 30 µM, were added to a solution with a fixed concentration of each protein (3 µM). The experimental set-up was identical to that described above, including preparation of the samples the day before and their storage overnight at 5 °C. Before measurements, the samples were incubated for 1 h at 25 °C. The fluorescence of a blank solution containing only the corresponding peptide was subtracted for each data point. […] The Kd was determined by following the fluorescence at selected wavelengths and fitting experimental data to Equation (1). […] At all used concentrations, the fluorescence was corrected by the inner-filter effects.
# [3] = test system: Staphylococcus aureus CECT59; type: cell-based; settings: S. aureus CECT59, two-fold broth microdilution (CLSI), MH broth, 24 h, 37 °C; triplicate (sd = 0); highest concentration tested 400 µM
# Experimental: The CECT59 strain of the Gram-positive bacteria Staphylococcus aureus from the Spanish Type Culture Collection (Colección Española de Cultivos Tipo, CECT, Universitat de Valencia, Spain) was used for determining its sensitivity to the HPr peptides studied in this work. The MIC for each peptide was determined by the two-fold broth microdilution method according to the Clinical and Laboratory Standards Institute (CLSI) guidelines, with some modifications as previously described. For this testing procedure, a bacteria colony previously grown in MH agar plates was isolated and incubated in MH broth at 37 °C overnight to prepare the bacteria inoculum to be used in each assay. Then, the bacteria suspensions were adjusted to a 100× dilution of an 0.5 McFarland turbidity standard in MH broth and incubated with different concentrations of each peptide in round-bottom 96-well polystyrene plates (Deltalab S.L., Rubí, Spain) (50 μL/well) for 24 h at 37 °C. The peptide concentrations employed comprised two-fold dilutions starting at either 120, 160, or 400 µM, depending on the experiment. […] All assays were performed in triplicate.
# [4] = Far-UV CD, helicity from molar ellipticity at 222 nm; type: physicochemical; settings: 5 °C; for [Θ]^222 (value in parentheses): 50 mM Tris pH 7.0; for Helicity (%): 50 mM Tris pH 7.0, from [Θ]^222 assuming −39,500 deg cm^2 dmol^−1 for a fully formed α-helix
# Experimental: Spectra were collected on a Jasco J810 spectropolarimeter (Jasco, Tokyo, Japan) interfaced with a Peltier unit. Far-UV measurements were performed with samples placed in quartz cells with a 0.1 cm path length (Hellma, Kruibeke, Belgium), with a response time of 2 s, a band width of 1 nm, and a scan velocity of 50 nm/min. For all peptides, a wide range of concentrations (10–50 µM) was used to determine whether either the shape or the intensity of the spectra was concentration-dependent. None of those features changed in the concentration range explored. The experiments in aqueous solution were acquired at 5 °C in Tris buffer (50 mM, pH 7.0). Raw ellipticity was converted to molar ellipticity, [Θ], from which the fraction of helical populations was determined as previously described. For the experiments in the presence of each protein (repeated three times), the same concentration used in the fluorescence experiments was used, and the experimental set-up was the same as described above for the isolated peptides.
# [5] = TFE titration followed by far-UV CD (disordered-helical two-state equilibrium); type: physicochemical; settings: for [TFE]1/2 / m: TFE titration by far-UV CD, 20 µM peptide, two-state fit, fitting errors; for percentage of helical population (in parentheses): from ∆G^water assuming a two-state conformational equilibrium; for ∆G^water: product of m- and [TFE]1/2 values, error propagation
# Experimental: For experiments in the presence of TFE, the same set of experimental parameters was used. Cosolvent concentrations were indicated in percentage of volume (%). […] The peptide concentration for these experiments was 20 µM.
# [6] = Translational diffusion NMR (DOSY); type: physicochemical; settings: for D (translational diffusion coefficient): DOSY, 10 °C, 100% D2O, 70-120 µM peptide, fitting errors, repeated twice; for Rh (in parentheses, from DOSY): from comparison with the Rh of dioxane (2.12 Å)
# Experimental: (b) Translational diffusion NMR (DOSY): Peptide concentrations were the same as those used in the 1D-^1H-NMR spectra. Translational self-diffusion measurements were performed with the pulsed-gradient spin-echo sequence in the presence of 100% D2O. The following relationship existed between the translational self-diffusion coefficient, D, and the delays used during experiment acquisition:(2) I/I0=−exp(DγH2δ^2G^2(Δ−δ/3−τ/2)) where I is the peak intensity of a particular resonance (or a group of them) at any gradient strength; I0 is the maximum peak intensity of the same resonance(s) at the smallest gradient strength (that is, at 2% of the total power of the gradient coil); D is the translational self-diffusion constant (in cm^2 s^−1); δ is the duration (in s) of the gradient; G is the gradient strength (in T cm^−1); ∆ is the time (in s) between the gradients; γH is the gyromagnetic constant of the proton (in rad s^−1 T^−1); and τ is the recovery delay between the bipolar gradients (100 µs in our experiments). The gradient strength (G) was varied in 16 lineal steps, between 2 and 95% of the total power of the gradient coil of the probe. The gradient strength was calibrated by using the value of D for the residual proton water line in a sample containing 100% D2O placed in a 5 mm tube [42]. Data were plotted as I/I0 versus G^2, and the exponential factor of the curve was:(3) DγH2δ^2(Δ−δ/3−τ/2) from which D can be obtained. The duration of the gradient (δ) was 2.25 ms, and the time between the two gradients (∆) was set to 200 ms. The signal from the methyl groups between 1.1 and 0.70 ppm were used for integration of the intensity. A final concentration of 1% of dioxane was added to each peptide; the hydrodynamic radius, Rh, of each peptide was obtained for comparison by assuming that the Rh of dioxane was 2.12 Å [42]. The DOSY experiment was repeated twice with fresh samples for each peptide.
# EIN^sc = EIN^sc (Streptomyces coelicolor, UniProt Q9KZP1); assay: biochemical; type: binding; settings: fluorescence titration, 3 µM protein, 0-30 µM peptide, 25 °C, 50 mM Tris pH 7.0; uncertainties are fitting errors; repeated three times; read-out: Kd, EIN^sc (fluorescence titration, value in parentheses)
# Experimental: as §1, §2
# [7] = molecular target: EI EIN (Streptomyces coelicolor) (UniProt Q9KZP1); assay: ITC; settings: cited from earlier work
# Rsd (Escherichia coli) = Rsd (Escherichia coli) (UniProt C5A0T6); assay: ITC; settings: cited from earlier work
# [8] = molecular target: EI (Streptomyces coelicolor) (UniProt Q9KZP1); assay: ITC; settings: cited from earlier work
# [9] = molecular target: T1, Regulator of sigma D from Escherichia …; assay: ITC; Rsd^ec or EIN^sc (10–20 µM) in the cell, peptide (100–200 µM) in the syringe; 50 mM Tris, pH 7.0, 25 °C; single binding-site model, 1:1 stoichiometry assumed; settings: both partners purified
# [10] = molecular target: T1, Regulator of sigma D from Escherichia …; assay: other fluorescence titration; peptide 0–30 µM added to 3 µM Rsd^ec or EIN^sc; 50 mM Tris, pH 7.0, 25 °C; samples left overnight at 5 °C; blank of peptide subtracted; settings: both partners purified
# Rsd = molecular target: Rsd; parameters: method as in PMID 24324139; settings: SPR; read-out: dissociation constant, Rsd-HPr in E. coli; cited from earlier work
# Chain of EIN^sc (Q9KZP1 1-230): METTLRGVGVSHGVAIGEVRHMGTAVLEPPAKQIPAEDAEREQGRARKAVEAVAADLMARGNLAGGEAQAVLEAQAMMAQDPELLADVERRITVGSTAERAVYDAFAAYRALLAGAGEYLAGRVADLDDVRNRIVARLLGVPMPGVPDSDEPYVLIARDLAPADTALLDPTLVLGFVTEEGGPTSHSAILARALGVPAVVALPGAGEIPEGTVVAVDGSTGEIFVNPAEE
# Chain of EI EIN (Streptomyces coelicolor) (Q9KZP1 1-250): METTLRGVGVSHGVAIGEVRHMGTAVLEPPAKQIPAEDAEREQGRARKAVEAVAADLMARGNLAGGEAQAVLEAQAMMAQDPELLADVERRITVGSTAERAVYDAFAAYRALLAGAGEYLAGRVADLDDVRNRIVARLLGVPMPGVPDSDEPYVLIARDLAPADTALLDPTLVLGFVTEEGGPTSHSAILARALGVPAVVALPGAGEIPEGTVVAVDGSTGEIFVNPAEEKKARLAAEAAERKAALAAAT
# Chain of EI (Streptomyces coelicolor) (Q9KZP1 whole entry): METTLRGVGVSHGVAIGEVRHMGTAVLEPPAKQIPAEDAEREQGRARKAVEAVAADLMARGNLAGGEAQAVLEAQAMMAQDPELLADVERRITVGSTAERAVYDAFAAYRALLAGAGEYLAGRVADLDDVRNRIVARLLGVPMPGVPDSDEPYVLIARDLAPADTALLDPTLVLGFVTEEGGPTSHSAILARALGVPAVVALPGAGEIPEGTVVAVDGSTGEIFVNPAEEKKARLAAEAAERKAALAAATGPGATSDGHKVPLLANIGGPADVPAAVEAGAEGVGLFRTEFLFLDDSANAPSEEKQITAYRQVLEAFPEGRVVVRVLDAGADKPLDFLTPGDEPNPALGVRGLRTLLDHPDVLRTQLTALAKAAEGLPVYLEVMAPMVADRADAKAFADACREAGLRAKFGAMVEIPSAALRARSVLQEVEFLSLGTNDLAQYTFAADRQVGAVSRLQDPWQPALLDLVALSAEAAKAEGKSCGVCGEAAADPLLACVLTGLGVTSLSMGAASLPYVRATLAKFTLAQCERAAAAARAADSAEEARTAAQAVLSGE
Molecule,"ΔH, Rsd^ec (Rsd^ec [1]; ITC, 25 °C) [kcal/mol]",MIC [3] [µM],[Θ]^222 (value in parentheses) [4] [deg cm^2 dmol^−1],Helicity (%) [4] [%],[TFE]1/2 [5],m [5],percentage of helical population (in parentheses) [5] [%],∆G^water [5] [kcal/mol],D (translational diffusion coefficient) [6] [cm^2 s^−1 × 10^6],"Rh (in parentheses, from DOSY) [6] [Å]",Kd (Rsd (Escherichia coli)) [µM],other results
Ac-GWAEGLHARPASAFVRAATATG-NH2 [Peptide I21A],1.0 ± 0.4,> 400,−681.95,1.7,23.8 ± 0.4 % (v/v),197 ± 20 cal/mol (% (v/v)),0.02,4.7 ± 0.5,1.9 ± 0.1,11 ± 1,,Kd (Rsd^ec [1]): 2.6 ± 0.4 µM; Kd (Rsd^ec [2]): 8 µM
Ac-GWAEGLHARAASAAARAATATG-NH2 [P18A/I21A/F22A/V23A],4.3 ± 0.5,> 400,−7305.73,18.4,21 ± 1 % (v/v),157 ± 26 cal/mol (% (v/v)),0.24,3.3 ± 0.6,1.7 ± 0.1,12 ± 2,,"Kd (Rsd^ec [1]; ITC, 25 °C, 50 mM Tris pH 7.0, single binding-site model, read-out: Kd, Rsd^ec (ITC)): 5 ± 0.7 µM; Kd (EIN^sc): 11 µM; Kd (Rsd^ec [2]; fluorescence titration, 3 µM protein, 0-30 µM peptide, 25 °C, 50 mM Tris pH 7.0, uncertainties are fitting errors, repeated three times, read-out: Kd, Rsd^ec (fluorescence titration, value in parentheses) (converted)): 10 µM"
HPr (from UniProt O50515),,,,,,,,,,,2,Kd [7]: 12 µM
HPr 9-30 (from UniProt O50515),,,,,,,,,,,2.5,Kd [8]: 230 µM
"Ac-GWAEGLHARPASIAVRAATATG-NH2 (HPr of Streptomyces coelicolor, residues 9-30, with F22A; source: synthetic peptide, bought: NZYTech (purity >95%)) [HPr^9–30 F22A peptide]",,,,,,,,,,,,Kd [9]: 5.9 ± 0.7 µM; dH [9]: 1.1 ± 0.5 kcal/mol; Kd [10]: 11 µM
"HPr^sc: intact histidine phosphocarrier protein HPr from Streptomyces coelicolor (O50515) (protein, UniProt O50515 2-93, looked up) Phosphocarrier protein HPr: AERRVNVGWAEGLHARPASIFVRAATATGVPVTIAKADGSPVNAASMLAVLGLGAQGGEEIVLASDAEGAEAALERLAKLVAEGLEELPETV",,,,,,,,,,,,Kd (Rsd): 0.00887 µM
